Results on 40 compounds are retold here after patent US12624026B2, “Inhibitors of SARM1” (Disarm Therapeutics, Inc., priority 2018, dated 2026).

Broadly, the IC50 is the concentration that inhibits the measured activity by half.
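Further: inhibition of SARM1 SAM-TIR NADase activity, i.e. NAD+ cleavage, using lysate of NRK1-HEK293T cells overexpressing the SAM-TIR fragment.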

This test addresses T1, SARM1 SAM-TIR (Homo sapiens, UniProt Q6SZW1).
T1 construct: a fragment of the SARM1 molecule encompassing the SAM and TIR domains; made in house; host or cells: NRK1-HEK293T cells, transiently transfected; the cleared, unpurified lysate was used as the enzyme
T1 sequence (Q6SZW1 409-724 limits assumed): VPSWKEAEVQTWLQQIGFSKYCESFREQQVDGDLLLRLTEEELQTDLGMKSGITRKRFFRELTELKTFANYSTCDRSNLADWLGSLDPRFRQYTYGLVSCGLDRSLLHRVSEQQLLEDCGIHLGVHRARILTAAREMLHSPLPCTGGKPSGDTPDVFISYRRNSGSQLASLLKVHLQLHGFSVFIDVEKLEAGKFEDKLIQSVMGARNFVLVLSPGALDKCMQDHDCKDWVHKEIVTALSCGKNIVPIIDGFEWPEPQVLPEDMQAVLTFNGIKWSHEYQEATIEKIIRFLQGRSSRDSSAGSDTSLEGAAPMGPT
Nature of the test: biochemical. Conditions: SAM-TIR lysate 5 μg/mL, 2 h pre-incubation, 5 μM NAD+, RapidFire MS of NAD+ and ADPR; read-out: SARM1 IC50.
As for `N#Cc1c(O)nsc1Nc1ccccc1` [Example 1], the IC50 fell in the range of 1000 to 5000 nM.
With `N#Cc1c(O)nsc1Nc1ccccc1Cl` [Example 2] the figure was less than 1000 nM; with `Cc1ccc(Nc2snc(O)c2C#N)cc1` [Example 3], 1000 to 5000 nM.
With `CC(C)c1ccc(Nc2snc(O)c2C#N)cc1` [Example 4], the IC50 was more than 5000 nM.
As to `N#Cc1c(O)nsc1Nc1ccc(Cl)cc1` [Example 5], the half-inhibitory concentration (IC50) lay within 1000 to 5000 nM.
Under `N#Cc1c(O)nsc1Nc1ccc(Cl)c(Cl)c1` [Example 8] stands 1000 to 5000 nM; under `N#Cc1c(O)nsc1Nc1ccc(Cl)cc1Cl` [Example 9], less than 1000 nM; under `N#Cc1c(O)nsc1Nc1cc(Cl)cc(Cl)c1` [Example 10], 1000 to 5000 nM.
Under `N#Cc1c(O)nsc1Nc1ccccc1F` [Example 11] stands 1000 to 5000 nM.
Turning to `N#Cc1c(O)nsc1Nc1ccc(C(F)(F)F)cc1` [Example 13], the IC50 fell in the range of 1000 to 5000 nM.
Under `COc1ccccc1Nc1snc(O)c1C#N` [Example 14] stands 1000 to 5000 nM.
In the case of `N#Cc1c(O)nsc1Nc1ccccc1OC(F)(F)F` [Example 15], the IC50 is less than 1000 nM.
With `N#Cc1c(O)nsc1Nc1c(Cl)cccc1Cl` [Example 16] the figure was less than 1000 nM; with `N#Cc1c(O)nsc1Nc1cccc(Cl)c1Cl` [Example 17], less than 1000 nM; with `NC(=O)c1c(O)nsc1Nc1cccc(Cl)c1Cl` [Example 18], 1000 to 5000 nM.
Under `N#Cc1c(O)nsc1Nc1cc(Cl)ccc1Cl` [Example 19] stands less than 1000 nM; under `N#Cc1c(O)nsc1Nc1cccnc1` [Example 20], more than 5000 nM.
Under `NC(=O)c1c(O)nsc1Nc1ccccc1OC(F)(F)F` [Example 21] stands 1000 to 5000 nM.
As to `Cc1cccc(C)c1Nc1snc(O)c1C#N` [Example 22], the IC50 is 1000 to 5000 nM.
As to `CSc1ccccc1Nc1snc(O)c1C#N` [Example 23], the half-inhibitory concentration (IC50) is less than 1000 nM.
Under `N#Cc1c(O)nsc1NCc1ccccc1` [Example 24] stands more than 5000 nM.
With `CS(=O)(=O)c1ccccc1Nc1snc(O)c1C#N` [Example 25], the concentration for half-maximal inhibition (IC50) is less than 1000 nM.
Under `N#Cc1c(O)nsc1Nc1cccc2ccccc12` [Example 26] stands less than 1000 nM; under `N#Cc1c(O)nsc1Nc1ccc2ccccc2c1` [Example 28], 1000 to 5000 nM; under `N#Cc1c(O)nsc1Nc1ccc2cccnc2c1` [Example 29], 1000 to 5000 nM.
Under `CN(c1ccccc1C(F)(F)F)c1snc(O)c1C#N` [Example 30] stands more than 5000 nM.
With `Cn1sc(Nc2ccccc2Cl)c(C#N)c1=O` [Example 32] the figure was less than 1000 nM.
For the compound `CN(C)CCn1sc(Nc2ccccc2C(F)(F)F)c(C#N)c1=O` [Example 33], the IC50 is less than 1000 nM.
With `N#Cc1c(Nc2cccc(Cl)c2Cl)sn(CCO)c1=O` [Example 34] the figure was less than 1000 nM; with `COc1cccc(Cl)c1Nc1sn(C)c(=O)c1C#N` [Example 35], less than 1000 nM.
Take `N#Cc1c(Nc2ccccc2C(F)(F)F)sn(CCC(N)=O)c1=O` [Example 36]: the half-maximal inhibitory concentration (IC50) is less than 1000 nM.
With `Cn1sc(Nc2cccc(Cl)c2Cl)c(C#N)c1=O` [Example 37] the figure was less than 1000 nM; with `N#Cc1c(Nc2ccccc2C(F)(F)F)sn(CC(N)=O)c1=O` [Example 38], less than 1000 nM.
With `N#Cc1c(Nc2ccccc2C(F)(F)F)sn(CCO)c1=O` [Example 39] the figure was less than 1000 nM; with `Cn1sc(Nc2c(Cl)ccc3c2CCO3)c(C#N)c1=O` [Example 40], less than 1000 nM; with `Cn1sc(Nc2ccc(Cl)c3c2CCO3)c(C#N)c1=O` [Example 41], less than 1000 nM.
Under `Cc1ccc2c(Nc3sn(C)c(=O)c3C#N)c(Cl)ccc2n1` [Example 42] stands less than 1000 nM; under `CC(O)Cn1sc(Nc2ccccc2C(F)(F)F)c(C#N)c1=O` (stereo not shown) [Example 43], less than 1000 nM; under `C[C@@H](CO)n1sc(Nc2ccccc2C(F)(F)F)c(C#N)c1=O` [Example 44], less than 1000 nM.
With `Cn1sc(Nc2c(F)cccc2Cl)c(C#N)c1=O` [Example 45], the half-maximal inhibitory concentration (IC50) was less than 1000 nM.
